Data: patent US8461389B2, “Psycho-pharmaceuticals” (University College Dublin, National University of Ireland, …, priority 2008, dated 2013)

System: C57B16 mice
Assay: Forced swim test
Format: in vivo
Details: 3 mg/kg and 5 mg/kg; n=8; FIG. 10B
Procedure: • 1. Fill a 12 cm diameter glass cylinder to 10 cm with 22° C. water. • 2. Place two animals simultaneously in individual side-by-side cylinders separated by an opaque screen. • 3. Place mice in the cylinders for 6 minutes. • 4. Observe the behaviour of the mice for the last 4-minutes of the 6-minute experimental session. • 5. Sessions are videotaped and scored blind, Immobility is scored by summing the time spent immobile; movements necessary to maintain the animals head above water were not scored with data from treated groups compared with data from the control group using nonpaired Student's t tests (two tailed). • 6. Animals are dried with paper towels and heat lamps. FST in Rats: Habituation Session (Day 1) • 1. On Day 1, […] prior to testing, place the animals in the experimental room 60 min before the beginning of the habituation session. Randomly assign animals to a drug treatment, but give all animals within a cage the same treatment. Make food and water available throughout the experiment. • 2. Weigh two animals individually, then place one rat in each of the two cylinders (20 cm in diameter×40 cm high) containing water (25° C.) for 15 min (habituation session). No scoring of immobility is performed during the habituation session. […]
Values are expressed as mean±S.E.M (n=8). Statistical difference was determined using a Mann Whitney non-parametric U-test. […]

CCCCSc1ccc(C(SCCN(C)C)c2ccccc2)cc1 (single isomer, unassigned) [dextrorotary (+) enantiomer]
antidepressant activity of separated enantiomer (time spent immobile, forced swim test): retains the antidepressant biologic activity
